Assay results reported in US20080039431A1, “Method of improving plant growth by reducing viral infections” (priority 2006, published 2008).

Tested on: tomato spotted wilt virus (TSWV)
Assay: Replicated tomato drench trial (Example 6)
Format: in vivo, tomato (Lycopersicon esculentum MILL.)
Details: prothioconazole 0.0084 g ai/plant, imidacloprid 0.01 g/plant; for Percent control of incidence of TSWV in tomatoes: Abbott's formula; for Percent incidence of TSWV in tomatoes: drench
Protocol: Cultivation—A replicated trial on tomato (Lycopersicon esculentum MILL.) was initiated in Molino, Fla. to determine if drenches of prothioconazole alone and in combination with the insecticide imidacloprid would suppress TSWV in tomato. Tomato plants, cultivar FL 47 were transplanted on April 11 into 4 rows, each 9.1 meters long, 60 plants per plot, with three replications. Treatments were applied, into a shallow bowl dug at the base of each plant, as a drench in 40 ml water per plant (6 days after transplanting) on April 17. Treatments— • Untreated—no in-furrow treatment • Imidacloprid@0.01 g imidacloprid/plant. • Prothioconazole—prothioconazole@0.0084 g active ingredient/plant. • Prothioconazole+Imidacloprid—prothioconazole@0.0084 g active ingredient/plant+imidacloprid@0.01 g imidacloprid/plant. TSWV rating—University researchers recommend buffers in TSWV testing. Therefore, the center two rows (30 plants) per plot were used for virus ratings with the outer two rows acting as buffers. TSWV incidence determinations were made based on the presence or absence of TSWV symptoms (chlorosis and stunting) per plant. The four treatments were rated at 21, 29, and 39 days after treatment. Synergy formula—The Colby formula for proof of synergy was used in Example 6. The percent incidence values were converted to percent control with Abbotts's formula (1-treated/untreated)*100. Percent control values for solo treatment X and solo treatment Y, were entered into the Colby formula. When the value determined from the plots with both treatment X and Y applied together is greater than the value determined by the Colby formula then synergy is indicated. The formula is: X+Y−(X*Y/100).

Q: How did the “Percent control of incidence of TSWV in tomatoes” value (shortened to “Percent control”) (21 days after treatment) turn out when `OC(Cc1ccccc1Cl)(Cn1nc[nH]c1=S)C1(Cl)CC1` (stereo not drawn) [Prothioconazole, prothioconazole] was run?
A: 54.79%

Q: What about the “Percent incidence of TSWV in tomatoes” value (21 days after treatment) of the same compound?
A: 13.2%

Q: What about the “Percent control” value (29 days after treatment) of the same compound?
A: 28.00%

Q: What about the “Percent incidence of TSWV in tomatoes” value (29 days after treatment) of the same compound?
A: 48.6%

Q: And the “Percent control” value (39 days after treatment)?
A: 21.18%

Q: What about the “Percent incidence of TSWV in tomatoes” value (39 days after treatment) of the same compound?
A: 66.6%
